Data on four compounds can be found in patent US6620803B2, “Cosmetic or dermatological use of 7-hydroxylated steroids” (Vitasterol SARL, priority 1997, dated 2003).

Structures are written as SMILES.

Data set [1] relates to thymocytes of C57BL/6 mice (mouse T cells). Kind of data set: Cell apoptosis induced by glucocorticoids in cultured mouse thymocytes (flow cytometry, propidium iodide). Type of data set: cell-based, mouse (C57BL/6). On the procedure:
The thymus of C57BL/6 mice aged 4 weeks is removed. Culturing of the thymocytes is carried out for 6 hours in RPMI 1640 medium and in the presence or in the absence of the steroid tested. Apoptosis (fragmentation of the DNA) is measured by flow cytometry after labeling with propidium iodide. The apoptotic phenomenon is checked by electrophoresis of the DNA, which is visualized by ethidium bromide according to the conventional technique (observation of ranges of 200 base pairs).
For orientation: A flow cytometer gives signals particle by particle.

Data set [2] is described as follows: Viability of human keratinocytes in culture (MTT test). Type of data set: cell-based. Particulars: human, primary human keratinocytes in monolayer culture. On the procedure: (§1) Human keratinocyzes are obtained from parts removed by surgery and are cultured in a monolayer to preconfluence. 7α-Hydroxy-DHEA is administered to these cultures at various concentrations in ethanolic solution (10%), each concentration being tested eight times. Controls are carried out with ethanol alone (10%). After 24 hours, the viability of the keratinocytes is measured by testing with MTT (3-(4,5-dimethylthiazol-2-yl)-2,5-diphenyltetrazolium bromide) where the mitochondrial dehydrogenase succinate transforms the MTT into blue crystals of formazan which are soluble in DMSO (Mosmann, J. Immunol. Methods 65: 55-63, 1983). The cell viability is calculated according to the formula:
(§2) Any value greater than 100 indicates a product favoring cell viability.
(Tetrazolium assays rely on reduction of a dye to a coloured formazan, in cell work by metabolically active cells.)

In data set [3] the test system is human keratinocytes. Kind of data set: Anti-free radical effect on UVA-irradiated suspension of human keratinocytes (lipid peroxides by chemiluminescence). Type of data set: cell-based. Particulars: 10^−6 M, calculated on nonirradiated controls and reference of protection. On the procedure: Keratinocytes originating from a healthy donor are cultured to the subconfluent stage in medium (KGM) which is specific for the proliferation of the keratinocytes. The suspensions obtained are divided in triplicate into 4 series of which 3 are irradiated for 30 min with a lamp emitting UVA in order to activate the production of free radicals. Among the three irradiated series, one contains the vitamins C+E (0.7%) and serves as a reference of protection, one contains 7α-hydroxy-DHEA at 10^−6M and the last serves as a control.
The free radicals produced generate lipid peroxides which are determined by chemiluminescence (Belghmi et al. J. Biolum. Chemilum. 2: 113-119, 1982). The efficacy of 7α-hydroxy-DHEA is calculated on the basis of nonirradiated controls and of the reference of protection.

Data set [4] concerns human keratinocytes. Kind of data set: Viability of human keratinocytes in culture (MTT test). Type of data set: cell-based. The settings on record: concentrations tested 10^−4 M to 10^−8 M. On the procedure:
as §1, §2

Where [5] appears, read: steroid 10^−5 M together with Dexamethasone 10^−5 M, 6 hours, dexamethasone alone 73.5.
Where [6] appears, read: steroid 10^−6 M together with Dexamethasone 10^−6 M, 6 hours, dexamethasone alone 72.7.

Regarding `C[C@@H]1C[C@H]2[C@@H]3CCC4=CC(=O)C=C[C@]4(C)[C@@]3(F)[C@@H](O)C[C@]2(C)[C@@]1(O)C(=O)CO` [Dexamethasone, reference compound], the “Apoptotic cells (%)” value in data set [1] (Dexamethasone 10^−5 M alone, thymocytes cultured 6 hours, ethanol alone 41.5) is 73.5%; in data set [1] (Dexamethasone 10^−6 M alone, thymocytes cultured 6 hours, ethanol alone 41.5) it was 72.7%.
As to `C[C@]12CC[C@H](O)C[C@@H]1C[C@@H](O)[C@@H]1[C@@H]2CC[C@]2(C)C(=O)CC[C@@H]12` [7α-hydroxy-ISOA, 3β,7α-dihydroxy-5α-androstan-17-one], the “Apoptotic cells (%)” value in data set [1] (setting [5]) came to 46.3%; in data set [1] (setting [6]), 72.0%.
Turning to `C[C@]12CC[C@H](O)CC1=CC[C@@H]1[C@@H]2CC[C@]2(C)C(=O)CC[C@@H]12` [DHEA, 3β-hydroxy-5-androstene-17-one, reference compound], the “Apoptotic cells (%)” value in data set [1] (setting [5]) came to 51.4%; in data set [1] (setting [6]), 39.0%. Moreover, the viability (commonly a read-out of living cells in per cent, often relative to untreated cells) at 24 h in data set [2] (other comparative tests, concentration not given) amounted to 100 ± 5%.
Turning to `C[C@]12CC[C@H](O)CC1=C[C@@H](O)[C@@H]1[C@@H]2CC[C@]2(C)C(=O)CC[C@@H]12` [7α-hydroxy-DHEA, 3β,7α-dihydroxy-5-androsten-17-one], the “Apoptotic cells (%)” value was 48.6% in data set [1] (setting [5]) and 58.8% in data set [1] (setting [6]). Further, the Efficacy with human keratinocytes [3] is listed as 90%. Moreover, the viability at 24 h in data set [2] (5.10^−5 M, 24 hours, control 100) stood at 111 ± 7%; in data set [2] (5.10^−6 M, 24 hours, control 100), 147 ± 9%; in data set [2] (5.10^−7 M, 24 hours, control 100) it was 139 ± 3%; in data set [2] (10^−4 M, 24 hours, control 100), 124 ± 10%; in data set [2] (10^−5 M, 24 hours, control 100), 119 ± 7%; in data set [2] (10^−6 M, 24 hours, control 100) it was 154 ± 6%. The viability at 24 h in data set [2] (10^−7 M, 24 hours, control 100) was determined as 147 ± 5%; in data set [2] (10^−8 M, 24 hours, control 100), 127 ± 3%. For the same compound, in the data set on human keratinocytes [4], the Cytotoxicity on keratinocytes result was “no cytotoxicity was observed”.
